Data: patent US20140288044A1, “COMPOSITIONS AND THERAPEUTIC USES OF IKK-RELATED KINASE EPSILON AND TANKBINDING KINASE 1 INHIBITORS” (Alzheimer's Institute of America, Inc., priority 2011, published 2014)
Where two headings read alike, the source gives them in different places.

Target: T1, IKKε (Homo sapiens, UniProt Q14164)
T1 construct: His-tag (in-house Sf9 preparation) or GST-tag (purchased Invitrogen preparation); these are alternatives, not both on one protein; host or cells: Sf9 cells
T1 sequence (Q14164 1-716): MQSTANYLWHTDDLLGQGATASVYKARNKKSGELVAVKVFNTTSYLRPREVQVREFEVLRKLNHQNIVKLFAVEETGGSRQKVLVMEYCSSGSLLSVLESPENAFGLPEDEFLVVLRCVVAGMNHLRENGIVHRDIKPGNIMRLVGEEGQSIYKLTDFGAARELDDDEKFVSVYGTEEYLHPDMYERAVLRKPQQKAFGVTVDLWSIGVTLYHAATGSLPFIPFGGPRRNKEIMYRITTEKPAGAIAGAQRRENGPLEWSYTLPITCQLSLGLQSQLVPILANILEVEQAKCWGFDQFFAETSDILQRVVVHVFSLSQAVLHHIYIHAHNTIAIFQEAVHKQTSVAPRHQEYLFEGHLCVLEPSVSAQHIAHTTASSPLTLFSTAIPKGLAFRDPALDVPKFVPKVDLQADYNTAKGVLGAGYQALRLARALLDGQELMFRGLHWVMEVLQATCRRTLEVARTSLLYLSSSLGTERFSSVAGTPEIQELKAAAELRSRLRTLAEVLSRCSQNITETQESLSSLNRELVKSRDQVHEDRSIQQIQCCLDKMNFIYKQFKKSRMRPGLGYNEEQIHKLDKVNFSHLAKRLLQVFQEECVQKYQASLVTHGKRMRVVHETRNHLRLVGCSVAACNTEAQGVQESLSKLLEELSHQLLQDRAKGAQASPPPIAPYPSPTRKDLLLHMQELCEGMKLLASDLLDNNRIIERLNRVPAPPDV
Assay: In-vitro IKKε kinase assay (radiolabelled ATP, filterplate)
Type: biochemical
Protocol: IKKε enzyme was produced as a His-tag fusion in Sf9 cells or purchased as a GST-tag fusion (Invitrogen, Carlsbad, Calif.). TBK1 enzyme was produced as a His-tag fusion in Sf9 cells. Kinase reactions were carried out in reaction buffer using myelin basic protein (Millipore, Ballerica, Mass.), casein or dephosphorylated casein (Sigma, St. Louis, Mo.) as substrate at an ATP concentration equal to twice the Km,ATP value for each enzyme, corresponding to 32 μM ATP for IKKε and 60 μM ATP for TBK1. Radiolabelled [γ^33]ATP (PerkinElmer, Waltham, Mass.) in the amount of […] (IKKe, “normal”) or 0.7 μCi (IKKε, “sensitized”) or 1.25 μCi (TBK1) was added to each assay. Final enzyme concentrations were 0.1 or 0.015 μg/ml (IKKε) and 0.1 or 0.02 μg/ml (TBK1) for the “normal” and “sensitized” assay, respectively, and “sensitized” assays were conducted using only dephosphorylated casein as substrate. Test compounds (or DMSO solvent as a control) were added prior to initiation of the reactions. Reactions were terminated after 30-45 minutes by adding 3% phosphoric acid. Terminated reactions were transferred to P-81 cellulose phosphate filterplates (Whatman, Inc., Piscataway, N.J.) and washed with 1% phosphoric acid on a vacuum apparatus. After air drying, scintillant (PerkinElmer, Waltham, Mass.) was added and the plates were read on a PerkinElmer TopCount NXT instrument. Counts were normalized to DMSO controls after background subtraction.

[1] = in-vitro IKKε kinase inhibition assays, given as 0.005 μM (5 nM), read-out: IKKε kinase inhibitory activity (IC50 value)
[2] = "sensitized" assay, read-out: IC50, inhibition of the kinase activity of IKKε

IC50 [1] [nM] | SMILES | IC50 [2] [nM]
< 5 | CN(Cc1ccc(Nc2nccc(-c3ccc(OC4CCOCC4)c(C#N)c3)n2)cn1)S(C)(=O)=O [Example Compound 55, N-{[5-({4-[3-Cyano-4-(tetrahydro-2H-pyran-4-yloxy)phenyl]pyrimidin-2-yl}amino)pyridin-2-yl]methyl}-N-methylmethanesulfonamide] | –
< 5 | COc1cc(Nc2nccc(-c3ccc(O[C@@H]4CCN(C(=O)CO)C4)c(C#N)c3)n2)ccn1 [Example Compound 121, 2-{[(3R)-1-(Hydroxyacetyl)pyrrolidin-3-yl]oxy}-5-{2-[(2-methoxypyridin-4-yl)amino]pyrimidin-4-yl}benzonitrile] | –
< 5 | N#Cc1cc(-c2ccnc(Nc3ccnc(N4CCC[C@H]4CO)c3)n2)ccc1OC1CCOCC1 [Example Compound 40, 5-[2-({2-[(2S)-2-(Hydroxymethyl)pyrrolidin-1-yl]pyridin-4-yl}amino)pyrimidin-4-yl]-2-(tetrahydro-2H-pyran-4-yloxy)benzonitrile] | < 5
< 5 | N#Cc1cc(-c2ccnc(Nc3ccc(C(=O)N4CCN(CCO)CC4)s3)n2)ccc1OC1CCOCC1 [Example Compound 95, 5-{2-[(5-{[4-(2-Hydroxyethyl)piperazin-1-yl]carbonyl}thiophen-2-yl)amino]pyrimidin-4-yl}-2-(tetrahydro-2H-pyran-4-yloxy)benzonitrile] | < 5
< 5 | COC1CCN(c2cc(Nc3nccc(-c4ccc(OC5CCOCC5)c(C#N)c4)n3)ccn2)C1 (centres unmarked) [Example Compound 39, 5-(2-{[2-(3-Methoxypyrrolidin-1-yl)pyridin-4-yl]amino}pyrimidin-4-yl)-2-(tetrahydro-2H-pyran-4-yloxy)benzonitrile] | < 5
< 5 | COC1CN(c2cc(Nc3nccc(-c4ccc(NC(=O)C5CC5)c(C#N)c4)n3)ccn2)C1 [Example Compound 142, N-[2-Cyano-4-(2-{[2-(3-methoxyazetidin-1-yl)pyridin-4-yl]amino}pyrimidin-4-yl)phenyl]cyclopropanecarboxamide] | < 5

More lines, now with the values behind:

SMILES | IC50 [1] [nM] | IC50 [2] [nM]
CN(C)c1ccc(Nc2nccc(-c3ccc(OC4CCOCC4)c(C#N)c3)n2)cn1 [Example Compound 10, 5-(2-{[6-(Dimethylamino)pyridin-3-yl]amino}pyrimidin-4-yl)-2-(tetrahydro-2H-pyran-4-yloxy)benzonitrile] | < 5 | < 5
N#Cc1cc(-c2ccnc(Nc3ccc(-c4cn[nH]c4)nc3)n2)ccc1OC1CCOCC1 [Example Compound 188, 5-(2-{[6-(1H-Pyrazol-4-yl)pyridin-3-yl]amino}pyrimidin-4-yl)-2-(tetrahydro-2H-pyran-4-yloxy)benzonitrile] | – | < 5
N#Cc1cc(-c2ccnc(Nc3ccc(/C=C/CN4CCOCC4)nc3)n2)ccc1OC1CCOCC1 [Example Compound 190, 5-[2-({6-[(1E)-3-(Morpholin-4-yl)prop-1-en-1-yl]pyridin-3-yl}amino)pyrimidin-4-yl]-2-(tetrahydro-2H-pyran-4-yloxy)benzonitrile] | – | < 5
CN(Cc1ccc(Nc2nccc(-c3ccc(OC4CCOCC4)c(C#N)c3)n2)cn1)C(=O)CO [Example Compound 195, N-{[5-({4-[3-Cyano-4-(tetrahydro-2H-pyran-4-yloxy)phenyl]pyrimidin-2-yl}amino)pyridin-2-yl]methyl}-2-hydroxy-N-methylacetamide] | – | < 5
N#Cc1cc(-c2ccnc(Nc3cncc(CN4CCOCC4)c3)n2)ccc1OC1CCOCC1 [Example Compound 21, 5-(2-{[5-(Morpholin-4-ylmethyl)pyridin-3-yl]amino}pyrimidin-4-yl)-2-(tetrahydro-2H-pyran-4-yloxy)benzonitrile] | < 5 | –
COCCNCc1cncc(Nc2nccc(-c3ccc(OC4CCOCC4)c(C#N)c3)n2)c1 [Example Compound 22, 5-{2-[(5-{[(2-Methoxyethyl)amino]methyl}pyridin-3-yl)amino]pyrimidin-4-yl}-2-(tetrahydro-2H-pyran-4-yloxy)benzonitrile] | < 5 | –
